In patent publication US11904021B2, “Dual targeting and therapeutic nanoparticle for treating renal fibrosis” (The Chinese University of Hong Kong, priority 2020, dated 2024):
“And” between values parts separate entries of the source, which are not always exact repeats. Equal entries are not always repeated. “Also recorded” adds a separate entry of the source.

Key:
[1] = system: UUO mice with established renal fibrosis; assay: Efficacy study in UUO mice: kidney degeneration (gross appearance, histology, kidney weight, blood creatinine); format: in vivo, Balb/c mice; conditions: treatment from Day 7, sacrifice Day 14 post-UUO surgery
Experimental: Mouse model of renal fibrosis was induced by the UUO surgery as previously described^12,29. Mice were anesthetized by an intraperitoneal injection of ketamine (100 mg/kg; Alfasan International B.V.) and xylazine (10 mg/kg; Alfasan International B.V.). The peritoneum was cut along the midline, and the left ureter was isolated and ligated twice by using a 5-0 suture (NingBo Cheng-He Microsurgical Instruments). The bowel was laid back and the peritoneum was closed with suture. The mice were placed under a heating lamp to maintain body temperature until they recovered from anesthesia. For analgesia, three injections of buprenorphine (Temgesic, 0.05 mg/kg) were given to the mice subcutaneously every 12 h after the surgery. To verify the development of fibrosis, the mice were sacrificed by cervical dislocation with anesthesia, and their kidneys were weighted (see FIG. 4) and processed for histological analysis (see FIGS. 5A-5C).
FA was dissolved in sterile BioPerformance Certified DMSO (Sigma) and formulated in D5W prior to injection. The final concentration of DMSO was less than 1%. Au3-PEG500-FA NPs formulated in D5W was injected i.v. at a dose of 0.12 mg-FA/kg-mouse (or equivalently 2.5 mg-Au/kg-mouse). […]
(§1) The major measurable outcome was the expression level of collagen I, as quantified by the percentage area of IHC staining in the kidney sections. […]

[2] = system: type I collagen; assay: Anti-fibrosis efficacy: IHC of type I collagen in UUO kidney; format: in vivo, Balb/c mice; conditions: for fractional area of type I collagen in UUO kidney: Day 14 post-UUO surgery (7 days post injection)
Experimental: (§2) Mouse kidney tissue—Two slides from each kidney were selected for each set of stains such that two section-containing slides were at least 200 μm away from each other. IHC staining was performed on paraffin sections using the microwave-based antigen retrieval technique^32. Tissue sections were deparaffinized and rehydrated to water. After placing the slides in citrate buffer (10 mM citric acid, pH 6.0), the slides were heated in the microwave oven for 3 min under high power (˜95-100° C.) and for 20 more min under low power. After cooling the slides in the heated solution for 30 min, they were rinsed in distilled water twice and in PBS for 5 min. Next, the slides were blocked with 2.5% normal horse serum (Vector Laboratories) for 2 h and incubated with 60 μL of primary antibodies [1 μg/mL for type I collagen (1310-01; Southern BioTech), 0.048 μg/mL for α-SMA (ab150301; Abcam)) 0.625 μg/mL for folate receptor (ab67422; Abcam), 1.25 μg/mL for CD3 (ab16669; Abcam), 1.25 μg/mL for Wnt5b (ab93134; Abcam), and pre-diluted β-catenin (ab15180; Abcam)] at 4° C. overnight. Slides were then washed in PBS and treated with 3% H2O2 (Merck Millipore) for 30 min, rinsed again, and incubated with ˜50 μL of secondary antibodies (ImmPRESS HRP Polymer detection Kit, Vector Laboratories) for 30 min. The sections were developed sequentially by using 3,3′-diaminobenzidine (DAB) enzyme substrate (ImmPACT™ DAB, Vector Laboratories) for 2 min. All slides were counter-stained with Mayer's hematoxylin for 3 min, washed in distilled water, dried in 90% ethanol, and mounted by using xylene-based mounting medium. Bright-field images were acquired using the Nikon Eclipse Ni (DS-Ri2) microscope.
FA was dissolved in sterile BioPerformance Certified DMSO (Sigma) and formulated in D5W prior to injection. The final concentration of DMSO was less than 1%. […]
as §1

[3] = system: α-smooth muscle actin (a-SMA); assay: Anti-fibrosis efficacy: IHC of α-SMA in UUO kidney; format: in vivo, Balb/c mice; conditions: Day 14 post-UUO surgery
Experimental: as §2, with “Slides were then washed in PBS and treated with 3% H2O2 (Merck Millipore) for 30 min, rinsed again, and incubated with ˜50 μL of secondary antibodies (ImmPRESS HRP Polymer detection Kit, Vector Laboratories) for 30 min. The sections were developed sequentially by using 3,3′-diaminobenzidine (DAB) enzyme substrate (ImmPACT™ DAB, Vector Laboratories) for 2 min. All slides were counter-stained with Mayer's hematoxylin for 3 min, washed in distilled water, dried in 90% ethanol, and mounted by using xylene-based mounting medium. Bright-field images were acquired using the Nikon Eclipse Ni (DS-Ri2) microscope.” left out
as §1

[4] = system: CD3+ T cells; assay: Anti-fibrosis efficacy: IHC of CD3+ T cell infiltration in UUO kidney; format: in vivo, Balb/c mice; conditions: Day 14 post-UUO surgery
Experimental: as §2, with “Slides were then washed in PBS and treated with 3% H2O2 (Merck Millipore) for 30 min, rinsed again, and incubated with ˜50 μL of secondary antibodies (ImmPRESS HRP Polymer detection Kit, Vector Laboratories) for 30 min. The sections were developed sequentially by using 3,3′-diaminobenzidine (DAB) enzyme substrate (ImmPACT™ DAB, Vector Laboratories) for 2 min. All slides were counter-stained with Mayer's hematoxylin for 3 min, washed in distilled water, dried in 90% ethanol, and mounted by using xylene-based mounting medium. Bright-field images were acquired using the Nikon Eclipse Ni (DS-Ri2) microscope.” left out
as §1

[5] = system: type I collagen (gene ID: Col1a1); assay: Transcriptomic analysis (RNA-seq) of UUO kidneys; format: in vivo, Balb/c mice; conditions: UUO kidney, 48 h post-injection, individual replicates 1-3
Experimental: UUO mice were i.v. injected with Au3-PEG500-FA NPs (i.e., […]) or free (i.e., 0.12 mg-FA/kg-mouse) on Day 7 after UUO surgery, at the same dosage used for the efficacy studies. An untreated group of UUO mice was also included as control. On Day 9 after UUO surgery (i.e., 48 h post-injection), the mice were sacrificed and the UUO kidneys were harvested. After cutting the UUO kidneys in half using a scalpel, one set of the halved kidneys was fixed in buffered formalin while the other set was snap frozen in liquid nitrogen and stored at −80° C. The formalin-fixed samples were dehydrated as mentioned above and embedded in paraffin blocks to generate tissue sections for validating the RNA-seq data. The frozen samples were sent to Beijing Genomics Institute (BGI) for RNA extraction, RNA library construction, and bioinformatic analysis. A total of 9 samples were sequenced using the BGISEQ platform, with ˜4.57 Gb generated per sample. The average mapping ratio with reference genome is 94.33%. Differential expressed genes (DEGs) detection, gene ontology analysis of DEG, and other analysis based on gene expression were performed by BGI. Further analysis of the DEGs was performed by filtering the list of DEGs with a FPKM threshold of 2 for at least 6 out of the 9 UUO samples tested.
Animals were sacrificed on Day 9. […]

[6] = system: UUO mice; assay: In vivo toxicity test (organ histology, blood biochemistry, hematology); set-up: species or system Balb/c mice; conditions: 7 days post-injection, efficacy dose
Experimental: Liver, heart, and spleen samples were fixed in 10% buffered formalin for 48 h and then stored in PBS at 4° C. Paraffin-embedded tissue sections of 4 μm thick were stained with hematoxylin and eosin for the tissue morphology by light microscopy. Blood, collected via an intracardiac puncture, was stored in a plain tube for biochemistry tests and in EDTA-coated tubes (Becton Dickinson) for hematology analysis. The blood samples were kept on ice and later sent to PathLab (Hong Kong) for analysis on the same day.

[7] = neutral conditions, literature ref 45; cited from earlier work

| SMILES | gross tissue degeneration of UUO kidney [1] | type I collagen protein expression in UUO kidney versus saline group ([2]; 48 h post-injection (Day 9)) | fractional area of type I collagen in UUO kidney [2] [%] | area with positive α-SMA in the UUO kidney [3] [%] | mean population of CD3+ T cells [4] [cells/frame] | Expression level (FPKM) for type I collagen [5] | histological examination of liver, heart, and spleen [6] | solubility in water [7] |
| --- | --- | --- | --- | --- | --- | --- | --- | --- |
| Nc1nc2ncc(CNc3ccc(C(=O)N[C@@H](CCC(=O)O)C(=O)O)cc3)nc2c(=O)[nH]1 [free FA, folic acid] | rescued the UUO kidney from tissue degeneration; also recorded: did not degenerate | lower type I collagen protein expression than the saline group | 11.2 | 10.7 | 13 | 185.4 FPKM and 80.71 FPKM and 18.57 FPKM | did not observe noticeable toxicity | poorly soluble in water |
| C[C@H](CS)C(=O)N1CCC[C@H]1C(=O)O [Captopril] |  |  | 13.5 | 12.5 |  |  | did not observe noticeable toxicity |  |
